Square brackets hold non-standard residues; d marks the D form. Peptide text beside a SMILES is read from it. * marks the point of attachment. His(Trt) = N[C@@H](Cc1cn(C(c2ccccc2)(c2ccccc2)c2ccccc2)cn1)C(=O)O; dHis(Trt) = N[C@H](Cc1cn(C(c2ccccc2)(c2ccccc2)c2ccccc2)cn1)C(=O)O; His(τ-CHPh2) = N[C@@H](Cc1cn(C(c2ccccc2)c2ccccc2)cn1)C(=O)O; Tyr(3-NO2) = N[C@@H](Cc1ccc(O)c([N+](=O)[O-])c1)C(=O)O; His(τ-Bzl) = N[C@@H](Cc1cn(Cc2ccccc2)cn1)C(=O)O; dPhe(4-Br) = N[C@H](Cc1ccc(Br)cc1)C(=O)O; dPhe(4-Me) = Cc1ccc(C[C@@H](N)C(=O)O)cc1; dPhe(4-F) = N[C@H](Cc1ccc(F)cc1)C(=O)O; Palmitoyl = CCCCCCCCCCCCCCCC(=O)*; Octanoyl = CCCCCCCC(=O)*

For this data set, the target named is T1, GPR39 (Homo sapiens, UniProt O43194).
T1 sequence (O43194 1-453): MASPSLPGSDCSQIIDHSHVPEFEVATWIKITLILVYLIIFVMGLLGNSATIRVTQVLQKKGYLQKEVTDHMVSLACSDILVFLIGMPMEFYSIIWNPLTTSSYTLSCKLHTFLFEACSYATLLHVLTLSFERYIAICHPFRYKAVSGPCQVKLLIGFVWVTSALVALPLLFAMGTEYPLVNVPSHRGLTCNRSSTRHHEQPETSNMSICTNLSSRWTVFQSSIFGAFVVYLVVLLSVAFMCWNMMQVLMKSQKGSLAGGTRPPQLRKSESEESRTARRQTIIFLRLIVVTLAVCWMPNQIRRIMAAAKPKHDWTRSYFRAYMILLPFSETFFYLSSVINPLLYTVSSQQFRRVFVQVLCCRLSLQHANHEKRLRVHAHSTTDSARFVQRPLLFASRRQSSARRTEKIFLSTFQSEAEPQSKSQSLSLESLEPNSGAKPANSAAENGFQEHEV
Description: Specifically, the fibroblast cell line CV-1 (1×10^5 cells/ml, Korea Cell Line Bank) was cultured in a 96 well cell culture plate for 24 hours, and then treated with GPR39 inserted into adenovirus and SRE (serum response element) luciferase at 50 MOI (multiplicity of infection) and 25 MOI virus for 3 hours, respectively, and then cultured for 24 hours.
For the compound `CCCCCCCC(=O)NCCCC[C@H](NC(=O)[C@H](CO)NC(=O)CNC(=O)[C@@H](N)Cc1cn(C(c2ccccc2)(c2ccccc2)c2ccccc2)cn1)C(=O)N[C@@H](Cc1ccccc1)C(=O)N[C@@H](Cc1ccc(O)cc1)C(=O)O` [HKFY-53, N6-octanoyl-N2-(Nt-trityl-L-histidylglycyl-L-seryl)-L-lysyl-L-phenylalanyl-L-tyrosine] (H-[His(Trt)]GSK(Octanoyl)FY-OH), the “ECmax (-fold induction over basal)” value is on record as 8 ± 2.12 -fold induction over basal. As for `CCCCCCCC(=O)NCCCC[C@H](NC(=O)[C@@H](N)Cc1cn(C(c2ccccc2)(c2ccccc2)c2ccccc2)cn1)C(=O)N[C@@H](Cc1ccccc1)C(=O)O` [HKFY-49, N6-octanoyl-N2-(Nt-trityl-L-histidyl)-L-lysyl-L-phenylalanine] (H-[His(Trt)]-Lys(Octanoyl)-Phe-OH), the “ECmax (-fold induction over basal)” value is given as 18.3 ± 1.8 -fold induction over basal. Turning to `CCCCCCCC(=O)NCCCC[C@H](NC(=O)[C@@H](N)Cc1cn(-c2ccccc2)c(-c2ccccc2)n1)C(=O)N[C@H](Cc1ccc(C)cc1)C(=O)N[C@@H](Cc1ccc(O)cc1)C(=O)O` [HKFY-59, ((R)-2-((S)-2-((S)-2-amino-3-(1,2-diphenyl-1H-imidazol-4-yl)propanamido)-6-octanamidohexanamido)-3-(p-tolyl)propanoyl)-L-tyrosine], the “ECmax (-fold induction over basal)” value was 6.76 ± 2.2 -fold induction over basal. As for `CCCCCCCCCCCCCCCC(=O)NCCCC[C@H](NC(=O)[C@@H](N)Cc1cn(C(c2ccccc2)(c2ccccc2)c2ccccc2)cn1)C(=O)N[C@@H](Cc1ccccc1)C(=O)N[C@@H](Cc1ccc(O)cc1)C(=O)O` [HKFY-27, N6-palmitoyl-N2-(Nt-trityl-L-histidyl)-L-lysyl-L-phenylalanyl-L-tyrosine] (H-[His(Trt)]K(Palmitoyl)FY-OH), the figure is 20.4 ± 0.57 -fold induction over basal; as for `CCCCCCCC(=O)NCCCC[C@H](NC(=O)[C@@H](N)Cc1cn(C(c2ccccc2)(c2ccccc2)c2ccccc2)cn1)C(=O)N[C@@H](Cc1ccccc1)C(=O)N[C@@H](Cc1ccc(O)cc1)C(=O)N[C@@H](CCC(N)=O)C(=O)N[C@@H](CC(N)=O)C(=O)N[C@@H](CCC(N)=O)C(=O)N[C@@H](C)C(=O)N[C@@H](CCCNC(=N)N)C(=O)N[C@@H](Cc1ccccc1)C(N)=O` [HKFY-43, (S)-N1-((S)-1-(((S)-1-(((S)-1-amino-1-oxo-3-phenylpropan-2-yl)amino)-5-guanidino-1-oxopentan-2-yl)amino)-1-oxopropan-2-yl)-2-((2S,5S,8S,11S,14S)-2-(2-amino-2-oxoethyl)-14-((S)-2-amino-3-(1-trityl-1H-imidazol-4-yl)propanamido)-5-(3-amino-3-oxopropyl)-11-benzyl-8-(4-hydroxybenzyl)-4,7,10,13,20-pentaoxo-3,6,9,12,19-pentaazaheptacosanamido)pentanediamide] (H-[His(Trt)]K(Octanoyl)FYQNQARF-NH2), 12.1 ± 0.02 -fold induction over basal; as for `CCCCCCCC(=O)NCCCC[C@H](NC(=O)[C@@H](N)Cc1cn(C(c2ccccc2)c2ccccc2)cn1)C(=O)N[C@H](Cc1ccc(C)cc1)C(=O)N[C@@H](Cc1ccc(O)c([N+](=O)[O-])c1)C(=O)O` [HKFY-68, (S)-2-((R)-2-((S)-2-((S)-2-amino-3-(1-benzhydryl-1H-imidazol-4-yl)propanamido)-6-octanamidohexanamido)-3-(p-tolyl)propanamido)-3-(4-hydroxy-3-nitrophenyl)propanoic acid] (H-[His(τ-CHPh2)]K(Octanoyl)[dPhe(4-Me)][Tyr(3-NO2)]-OH), 10.8 ± 1.41 -fold induction over basal. As for `CCCCCCCC(=O)NCCCC[C@H](NC(=O)[C@H](N)Cc1cn(C(c2ccccc2)(c2ccccc2)c2ccccc2)cn1)C(=O)N[C@@H](Cc1ccccc1)C(=O)N[C@@H](Cc1ccc(O)cc1)C(=O)O` [HKFY-4, N6-octanoyl-N2-(Nt-trityl-D-histidyl)-L-lysyl-L-phenylalanyl-L-tyrosine] (H-[dHis(Trt)]K(Octanoyl)FY-OH), the figure is 16.8 ± 1.87 -fold induction over basal; as for `CCCCCCCC(=O)NCCCC[C@H](NC(=O)[C@@H](N)Cc1cn(Cc2cccc3ccccc23)cn1)C(=O)N[C@@H](Cc1ccccc1)C(=O)N[C@@H](Cc1ccc(O)cc1)C(=O)O` [HKFY-10, N2-(Nt-(naphthalen-1-ylmethyl)-L-histidyl)-N6-octanoyl-L-lysyl-L-phenylalanyl-L-tyrosine], 14 ± 2.12 -fold induction over basal; as for `CCCCCCCC(=O)NCCCC[C@H](NC(=O)[C@@H](N)Cc1cn(C(c2ccccc2)(c2ccccc2)c2ccccc2)cn1)C(=O)N[C@@H](Cc1ccccc1)C(=O)N[C@@H](CO)C(=O)O` [HKFY-50, N6-octanoyl-N2-(Nt-trityl-L-histidyl)-L-lysyl-L-phenylalanyl-L-serine] (H-[His(Trt)]K(Octanoyl)FS-OH), 16.2 ± 1.5 -fold induction over basal.

Consider `CCCCCCCC(=O)NCCCC[C@H](NC(=O)[C@@H](N)Cc1cn(C(c2ccccc2)(c2ccccc2)c2ccccc2)cn1)C(=O)N[C@H](Cc1ccc(F)cc1)C(=O)N[C@@H](Cc1ccc(O)cc1)C(=O)O` [HKFY-28, ((R)-2-((S)-2-((S)-2-amino-3-(1-trityl-1H-imidazol-4-yl)propanamido)-6-octanamidohexanamido)-3-(4-fluorophenyl)propanoyl)-L-tyrosine] (H-[His(Trt)]K(Octanoyl)[dPhe(4-F)]Y-OH), for which the “ECmax (-fold induction over basal)” value was 22.95 ± 2.58 -fold induction over basal.

In the case of `CCCCCCCC(=O)NCCCC[C@H](NC(=O)[C@@H](N)Cc1cn([C@H](c2ccccc2)c2ccc(C)cc2)cn1)C(=O)N[C@@H](Cc1ccccc1)C(=O)N[C@@H](Cc1ccc(O)cc1)C(=O)O` [HKFY-22, N6-octanoyl-N2-(Nt-((R)-phenyl(p-tolyl)methyl)-L-histidyl)-L-lysyl-L-phenylalanyl-L-tyrosine], the “ECmax (-fold induction over basal)” value is given as 21.3 ± 1.8 -fold induction over basal. With `CCCCCCCC(=O)NCCCC[C@H](NC(=O)[C@@H](N)Cc1cn(C(c2ccccc2)c2ccc(OC)cc2)cn1)C(=O)N[C@@H](Cc1ccccc1)C(=O)N[C@@H](Cc1ccc(O)cc1)C(=O)O` (stereo partly drawn) [HKFY-20, N2-(Nt-((4-methoxyphenyl)(phenyl)methyl)-L-histidyl)-N6-octanoyl-L-lysyl-L-phenylalanyl-L-tyrosine], the “ECmax (-fold induction over basal)” value was 20.26 ± 2.7 -fold induction over basal. As for `CCCCCCCC(=O)NCCCC[C@H](NC(=O)[C@@H](N)Cc1cn(C(c2ccccc2)(c2ccccc2)c2ccccc2)cn1)C(=O)N[C@H](Cc1ccc(Br)cc1)C(=O)N[C@@H](Cc1ccc(O)cc1)C(=O)O` [HKFY-29, ((R)-2-((S)-2-((S)-2-amino-3-(1-trityl-1H-imidazol-4-yl)propanamido)-6-octanamidohexanamido)-3-(4-bromophenyl)propanoyl)-L-tyrosine] (H-[His(Trt)]K(Octanoyl)[dPhe(4-Br)]Y-OH), the figure is 26.8 ± 1.87 -fold induction over basal. For `CCCCCCCC(=O)NCCCC[C@H](NC(=O)[C@@H](N)Cc1cn(CCc2ccccc2)cn1)C(=O)N[C@@H](Cc1ccccc1)C(=O)N[C@@H](Cc1ccc(O)cc1)C(=O)O` [HKFY-9, N6-octanoyl-N2-(Nt-phenethyl-L-histidyl)-L-lysyl-L-phenylalanyl-L-tyrosine] the value was 21 ± 2.52 -fold induction over basal; for `CCCCCCCC(=O)NCCCC[C@H](NC(=O)[C@@H](N)Cc1cn(Cc2ccccc2)cn1)C(=O)N[C@@H](Cc1ccccc1)C(=O)N[C@@H](Cc1ccc(O)cc1)C(=O)O` [HKFY-3, N2-(Nt-benzyl-L-histidyl)-N6-octanoyl-L-lysyl-L-phenylalanyl-L-tyrosine] (H-[His(τ-Bzl)]K(Octanoyl)FY-OH), 9.2 ± 2.58 -fold induction over basal. As for `CCCCCCCC(=O)NCCCC[C@H](NC(=O)[C@@H](N)Cc1cn(C(c2ccccc2)c2ccccc2)cn1)C(=O)O` [HKFY-79, N2-(Nt-benzhydryl-L-histidyl)-N6-octanoyl-L-lysine], the figure is 11.2 ± 1.4 -fold induction over basal; as for `CCCCCCCC(=O)NCCCC[C@H](NC(=O)[C@@H](N)Cc1cn(C(c2ccccc2)(c2ccccc2)c2ccccc2)cn1)C(=O)N[C@@H](Cc1ccccc1)C(=O)N[C@@H](Cc1ccc(O)cc1)C(=O)N[C@@H](Cc1c[nH]cn1)C(=O)N[C@@H](CCC(N)=O)C(=O)N[C@@H](CCC(N)=O)C(=O)N[C@@H](C)C(=O)N[C@@H](CCCNC(=N)N)C(=O)N[C@@H](Cc1ccccc1)C(N)=O` [HKFY-42, (S)-2-((2S,5S,8S,11S)-2-((1H-imidazol-4-yl)methyl)-11-((S)-2-amino-3-(1-trityl-1H-imidazol-4-yl)propanamido)-8-benzyl-5-(4-hydroxybenzyl)-4,7,10,17-tetraoxo-3,6,9,16-tetraazatetracosanamido)-N1-((S)-5-amino-1-(((S)-1-(((S)-1-(((S)-1-amino-1-oxo-3-phenylpropan-2-yl)amino)-5-guanidino-1-oxopentan-2-yl)amino)-1-oxopropan-2-yl)amino)-1,5-dioxopentan-2-yl)pentanediamide] (H-[His(Trt)]K(Octanoyl)FYHQQARF-NH2), 11.8 ± 0.02 -fold induction over basal. With `CCCCCCCC(=O)NCCCC[C@H](NC(=O)[C@@H](N)Cc1cn(S(=O)(=O)c2ccc(C)cc2)cn1)C(=O)N[C@H](Cc1ccc(C)cc1)C(=O)N[C@@H](Cc1ccc(O)cc1)C(=O)O` [HKFY-75, ((R)-2-((S)-2-((S)-2-amino-3-(1-tosyl-1H-imidazol-4-yl)propanamido)-6-octanamidohexanamido)-3-(p-tolyl)propanoyl)-L-tyrosine], the “ECmax (-fold induction over basal)” value is 15.9 ± 4.12 -fold induction over basal.

These data come from patent publication US20230212222A1 (ANYGEN CO., LTD., priority 2020, published 2023).
